Source: patent US12642791B2, “Inhibitors of lysyl oxidases” (UNIVERSITY OF SOUTH CAROLINA, priority 2021, dated 2026)
Like-named read-outs stand apart in the source and are kept apart here.

Experiments:
[1] = test system: cellular lysyl oxidase (LOX) activity, MDA-MB-231 cells; assay: Cell-based lysyl oxidase activity assay (Abcam kit); design: species or system human
Description: As the available LOX inhibitors are either not very potent or have toxicity, the inventors developed a robust screening pipeline shown in FIG. 28 to identify potent and safe LOX-specific and pan-LOX inhibitors. Briefly, a high-throughput cell-based LOX activity (Abcam) screen (HTS) was done for more than 5,000 drug-like compounds from the EXPRESS-Pick diversified library (4,480 molecules, ChemBridge) and Tocriscreen library of bioactive compounds (1,280 compounds, Tocris), each at a single concentration of 10 μM. […] The toxic molecules were counter screened with cell cytotoxicity assay and filtered out.
FIGS. 34. […] IC50 for cellular lysyl oxidase activity upon treatment of MDA-MB-231 cells with different LOX inhibitors. uM=microM.
(§1) For cell-based lysyl oxidase activity, fluorometric Lysly Oxidase Activity Assay Kit (Abcam, USA) was used according to manufacturer's instructions. Briefly, after the treatment, 50 μl of supernatant from each well was incubated with reagent mix and fluorescence measured in multimode-reader at Ex/Em=540/590 nm wavelength.

[2] = test system: cellular LOX activity, PANC1; assay: Cell-based LOX activity in pancreatic cancer cell line; design: species or system human
Experimental: (§2) FIG. 39. Inhibition of cellular LOX activity in pancreatic and kidney cancer cell lines. Inhibition of cellular LOX activity upon the treatment with BAPN, 6232, 6403 and 6415 in kidney cell line Caki-1 (A) and pancreatic cancer cell lines Mia-Paca-2 (B) and PANC1 (C).
as §1

[3] = test system: cellular LOX activity, Mia-Paca-2; assay: as above; design: species or system human
Experimental: as §2, §1

MAO-A = biological target: T1, MAO-A (Homo sapiens, UniProt P21397); assay: MAO-GLO assay; format: biochemical; details: cell-free enzymatic activity assay
T1 construct: purchased Active Motif, USA
T1 sequence (P21397 1-527): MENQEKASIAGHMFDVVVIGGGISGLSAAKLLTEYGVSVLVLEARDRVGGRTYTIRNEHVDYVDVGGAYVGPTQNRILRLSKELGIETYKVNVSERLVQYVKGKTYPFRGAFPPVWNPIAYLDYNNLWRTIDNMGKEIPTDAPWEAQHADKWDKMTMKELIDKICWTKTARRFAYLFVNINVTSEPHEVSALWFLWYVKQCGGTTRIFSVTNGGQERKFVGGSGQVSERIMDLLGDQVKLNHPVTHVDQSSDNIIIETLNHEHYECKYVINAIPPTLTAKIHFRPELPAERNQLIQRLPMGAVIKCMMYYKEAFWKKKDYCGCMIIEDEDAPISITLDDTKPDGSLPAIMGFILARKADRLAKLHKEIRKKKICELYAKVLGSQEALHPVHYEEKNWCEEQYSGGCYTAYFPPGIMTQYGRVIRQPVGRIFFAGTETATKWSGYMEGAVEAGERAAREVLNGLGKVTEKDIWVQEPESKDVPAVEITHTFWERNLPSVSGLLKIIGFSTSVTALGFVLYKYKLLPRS
Experimental: (§3) MAO-GLO assay (Promega, USA) was used to measure the MAO-A and MAO-B activity upon LOX inhibitor treatment according to the manufacturer's instructions. For the enzyme activity, substrate was used at a concentration of 160 μM and 16 μM for MAO-A and MAO-B, respectively. MAO-A and MAO-B enzymes (Active Motif, USA) were used in 0.2 μg/per well. Reaction mix, enzymes, and drugs (30, 10, 3, 1, 0.3, and 0.1 nM) were mixed and incubated for 3 hours at RT. Then, 50 μl of luciferin was added into wells and incubated for 20 min at RT. Luciferase signals were measured by using a multimode reader.

MAO-B = biological target: T2, MAO-B (Homo sapiens, UniProt P27338); assay: MAO-GLO assay; format: biochemical; details: cell-free enzymatic activity assay
T2 construct: purchased Active Motif, USA
T2 sequence (P27338 1-520): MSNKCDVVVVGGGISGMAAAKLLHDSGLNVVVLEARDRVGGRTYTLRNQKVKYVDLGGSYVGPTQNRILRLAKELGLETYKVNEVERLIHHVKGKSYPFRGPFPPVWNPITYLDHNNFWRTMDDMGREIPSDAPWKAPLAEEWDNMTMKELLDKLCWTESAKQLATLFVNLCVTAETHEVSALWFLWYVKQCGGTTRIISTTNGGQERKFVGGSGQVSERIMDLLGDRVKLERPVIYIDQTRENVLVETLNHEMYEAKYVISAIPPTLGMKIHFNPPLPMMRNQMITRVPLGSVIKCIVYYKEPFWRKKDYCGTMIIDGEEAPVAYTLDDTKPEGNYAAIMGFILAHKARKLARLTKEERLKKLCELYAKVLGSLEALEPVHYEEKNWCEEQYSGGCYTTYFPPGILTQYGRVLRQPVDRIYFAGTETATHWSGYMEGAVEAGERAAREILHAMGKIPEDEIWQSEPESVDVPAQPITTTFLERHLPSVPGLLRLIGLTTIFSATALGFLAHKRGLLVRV
Experimental: as §3

MDA-MB-231 cells = assay: Migration assay (RTCA CIM plate); format: cell-based, human; details: 20 μM, 48 hours
Experimental: FIG. 37. LOX inhibitors, 6232, 6403 and 6415, reduced the migration capacity of the TNBC cell lines. RTCA-CIM plate used to measure the real-time migration of MDA-MB-231 cells upon treatment with 20 μM of 6232, 6403 and 6415 for 48 hours. (* p<0.05; ** p<0.01)
RTCA CIM Plate was used to assess the migration capacity of the cells upon LOX inhibitor treatment according to manufacturer's instructions. Briefly, 160 μl of 10% FBS containing media was added into each bottom chamber/50 μl of FBS free media into upper chamber and incubated 1 hour at 37° C. After the background measurement, 5×10^4 cells were seeded in FBS-free media into upper chamber in the presence of LOX inhibitors or vehicle. After the 30 min incubation at RT, real time cell migration was recorded for 48 hours.

[4] = test system: cellular lysyl oxidase activity, ACHN; assay: Cell-based LOX activity in kidney cancer cell line; design: species or system human; details: uM range
Experimental: FIG. 38. Dose dependent inhibition of cellular LOX activity and growth inhibition in 3D upon treatment with 6232 and its analogs, 6403 and 6415.in ACHN cancer cell line. Inhibition of cell-based LOX activity in ACHN (A) and growth inhibition in collagen:matrigel (1:1) culture (B) cancer cell lines upon treatment with LOX inhibitors 6232, 6403 and 6415 (uM range). BAPN is used as a positive control (mM range) in 3D cell viability assay. Growth inhibition was measured by using 3D Cell Titer Glo kit.
as §1

[5] = read-out: cellular LOX activity

Row | IC50 ([1]; read-out: IC50 for cellular lysyl oxidase inhibition) | IC50 [1, 5] | MAO-A activity inhibition (MAO-A) | MAO-B activity inhibition (MAO-B) | SMILES | cellular lysyl oxidase inhibition compared to BAPN [1] | cellular LOX activity [2] | cellular LOX activity [3] | migration capacity (MDA-MB-231 cells) | cellular lysyl oxidase activity inhibition [4]
1 | 1300 nM | 1300 nM | did not inhibit | did not inhibit | CC(=O)Nc1ccc(Nc2nc(-c3sc(N)nc3C)cs2)cc1 [compound 6403, N-[4-[[4-(2-amino-4-methyl-thiazol-5-yl)thiazol-2-yl]amino]phenyl]acetamide] | more potent | inhibited cellular LOX activity | inhibited cellular LOX activity | inhibited the migration capacity | dose dependent cellular lysyl oxidase activity inhibition
2 |  |  | did not inhibit | did not inhibit | Cc1nc(N)sc1-c1csc(Nc2ccc([N+](=O)[O-])cc2)n1 [compound 6232, 4-methyl-5-[2-(4-nitroanilino)thiazol-4-yl]thiazol-2-amine] | more potent | inhibited cellular LOX activity | inhibited cellular LOX activity | inhibited the migration capacity | dose dependent cellular lysyl oxidase activity inhibition
3 |  | 3500 nM | did not inhibit | did not inhibit | Cc1nc(N)sc1-c1csc(N(C)c2ccc(O)cc2)n1 [compound 6415, 4-[[4-(2-amino-4-methyl-thiazol-5-yl)thiazol-2-yl]-methyl-amino]phenol] | more potent | inhibited cellular LOX activity | inhibited cellular LOX activity | inhibited the migration capacity | dose dependent cellular lysyl oxidase activity inhibition
